Data from patent US4386073A, “Tripeptides acting on the central nervous system and a process for the preparation thereof” (Patentbureau DANUBIA, priority 1979, dated 1983).
Where a SMILES comes first, the peptide text is derived from it. [ ]: non-standard residue; d: D form. d(pGlu) = O=C1CC[C@H](C(=O)O)N1

Assays:
[1] = test system: Haloperidol-induced catalepsy; experiment: Inhibition of Haloperidol-induced catalepsy on rats; format: in vivo, rat (male Wistar); details: Haloperidol 40 mg/kg s.c., test compound i.v. 120 min later, probit analysis, at the time given
Method: (1) Inhibition of Haloperidol-induced catalepsy on rats (see J. Delay and P. Deniker: Compt. Rend. Congr. Med. Alenistes Neurologistes, 19, 497, Luxembourg, 1952)
The tests were performed on male Wistar rats weighing 160 to 180 g.
40 mg/kg of 4-(p-chlorophenyl)-1-(3-/p-fluorobenzoyl/-propyl)-piperidin-4-ol (Haloperi dol) were administered subcutaneously into the animals, and 120 minutes after this treatment the animals were checked for the appearance of catalepsy. The rats were divided into groups of 10 animals each, and treated intravenously with TRH or the new TRH analogues. The animals belonging to the control group received physiological saline. The catalepsy-suspending effects of the individual compounds were determined 15, 30, 60, 90 and 120 minutes after the treatment. The animals that had not changed their position for 30 seconds after placing their fore-paw onto a 7 cm high column were regarded as cataleptic.

[2] = test system: L-Dopa-induced locomotive activity; experiment: Potentiation of locomotive activity induced on mice by L-Dopa; format: in vivo; details: compound 20 mg/kg i.p., percent related to TRH; for Potentiation of the locomotive effect of L-Dopa, % after 60': 60 min; for Potentiation of the locomotive effect of L-Dopa, % after 90': 90 min; for Potentiation of the locomotive effect of L-Dopa, % after 30': Pargyline 40 mg/kg i.p., L-Dopa 100 mg/kg i.p., 30 min
Method: (2) Potentiation of locomotive activity induced on mice by L-Dopa (see The Thyroid Axis, Drugs and Behavior, p. 116, A. J. Prage Jr., Raven Press, New York, 1974)
The tests were performed on groups of 15 male mice each, weighing 18 to 22 g.
First, the animals were treated intraperitoneally with 40 mg/kg of N-methyl-N-propargyl-benzylamine (Pargyline), and then an intraperitoneal dosage of 20 mg/kg of TRH or a TRH-analogue was introduced, followed by an intraperitoneal dosage of 100 mg/kg of L-Dopa. The locomotive activity of the animals was recorded 30, 60 and 90 minutes after this treatment, and the level of potentiation was expressed in percents related to the results observed with TRH.

[3] = test system: Reserpine hypothermy; experiment: Reserpine hypothermy-reversing effect on mice; format: in vivo; details: average of 10 animals; for Reserpine hypothermy reversing effect, rectal temperature obs. time 1 h: 1 hour after 20 mg/kg of the tripeptide; for Reserpine hypothermy reversing effect, rectal temperature obs. time 2 h: 2 hours after 20 mg/kg of the tripeptide; for Reserpine hypothermy reversing effect, rectal temperature res.: 16 hours after reserpine 5 mg/kg i.p., before the tripeptide; for Reserpine hypothermy reversing effect, rectal temperature norm.: baseline prior to administration of reserpine
Method: (3) Reserpine hypothermy-reversing effect on mice (see B. M. Askew: Life Sci. 2, 725-730/1963/)
The tests were performed on groups of 10 male mice each, weighing 18 to 22 g. Reserpine was administered into the animals in an intraperitoneal dosage of 5 mg/kg, and 16 hours later the animals were treated with 20 mg/kg of TRH or a tripeptide under examination.
The rectal temperature of the animals was measured prior to the administration of reserpine (marked by "norm." in Table 1), 16 hours after the administration of reserpine (marked by "res." in Table 1), furthermore 1 and 2 hours after the administration of the tripeptide (marked by "obs.time" in Table 1). The data listed in Table 1 are the averages of the temperatures observed on the 10 animals.

[4] = test system: hexobarbital-induced sleeping; experiment: Influencing the duration of sleeping caused by hexobarbital; format: in vivo; details: mice, hexobarbital sodium 60 mg/kg i.v., compound 20 mg/kg i.p. 10 min later; control sleeping 38.4 ± 1.36 min
Method: (4) Influencing the duration of sleeping caused by hexobarbital The tests were performed on groups of 10 male mice each. The animals were treated intravenously with 60 mg/kg of hexobarbital sodium ([…]®; Bayer), and 10 minutes later 20 mg/kg of TRH or a tripeptide under examination were administered intraperitoneally into the animals. The sleeping times of the animals were recorded, averages were calculated for the individual groups, and the results were expressed as percents related to the control group.

[5] = test system: ethanol-induced sleeping; experiment: Ethanol narcosis; format: in vivo, CFLP (LATI) mice; details: mice, ethanol 4.5 g i.p., compound 20 mg/kg i.p. 10 min later; control sleeping 46.9 ± 2.17 min
Method: (5) Ethanol narcosis (see J. M. Cott et al.: J. Pharm. Exp. Ther. 196, 594/1976/) The tests were performed on groups of 20 CFLP (LATI) mice of both sexes, each weighing 18 to 22 g. 4.5 g of ethanol were introduced intraperitoneally into the animals, and 10 minutes later the animals were treated intraperitoneally with 20 mg/kg of the tripeptide under examination. The sleeping periods of the animals were recorded, averages were calculated for the individual groups, and the results were expressed as percents related to the control group.

[6] = test system: TSH; experiment: Hormonal activity (TSH effect) on rats; format: in vivo, rat (male Wistar); details: 20 mg/kg i.v., plasma TSH by radioimmune assay 15 min after treatment, relative activity, TRH = 100%
Method: (6) Hormonal activity (TSH effect) on rats
The tests were performed on groups of 7 or 8 male Wistar rats each, weighing 200 g. The animals were treated intravenously with 20 mg/kg of TRH or a tripeptide under examination. The TSH reaction of the animals was evaluated 15 minutes after this treatment, by subjecting the blood plasma to radioimmune assay. The relative activities were calculated by the four-point method using a TPA 101 computer, and the activity of TRH was regarded as 100%.

Row | Compound | Inhibition of Haloperidol catalepsy ED50 [1] [mg/kg] | Potentiation of the locomotive effect of L-Dopa, % after 60' [2] [%] | Potentiation of the locomotive effect of L-Dopa, % after 90' [2] [%] | Reserpine hypothermy reversing effect, rectal temperature obs. time 1 h [3] [°C] | Decrease of sleeping period (% related to the control animals), Hexobarb. [4] [%] | Decrease of sleeping period (% related to the control animals), Ethanol [5] [%] | Potentiation of the locomotive effect of L-Dopa, % after 30' [2] [%] | Reserpine hypothermy reversing effect, rectal temperature obs. time 2 h [3] [°C] | Reserpine hypothermy reversing effect, rectal temperature res. [3] [°C] | Reserpine hypothermy reversing effect, rectal temperature norm. [3] [°C] | TSH effect [6] [%]
1 | NC(=O)[C@@H]1CCCN1C(=O)[C@H](Cc1c[nH]cn1)NC(=O)[C@@H]1CCC(=O)N1 [TRH, L-pyroglutamyl-L-histidyl-L-prolinamide, reference compound] | 80 | 100 | 100 | 35.5 | 56 | 35 |  |  |  |  | 
2 | CC(C)C[C@H](NC(=O)C1CNC(=O)N1)C(=O)N1CCC[C@H]1C(N)=O (stereo partly drawn) [Kic Leu Pro, L-2-Ketoimidazolidine-4-carbonyl-L-leucyl-L-prolinamide] | 80 | 70 | 98 | 27.7 | 59 | 69 | 118 | 28.8 | 24.1 | 35.5 | 0
3 | CCC[C@H](NC(=O)C1CCCC(=O)N1)C(=O)N1CCCC[C@H]1C(N)=O (stereo partly drawn) [Kpc Nva HPro, L-6-Ketopiperidine-2-carbonyl-L-norvalyl-L-homoprolinamide] | 35.3 | 30 | 108 | 26.5 | 76 | 35 | 63 | 32.2 | 20.7 | 36.3 | 
4 | CC(C)C[C@H](NC(=O)[C@H]1CCC(=O)N1)C(=O)N1CCC[C@H]1C(N)=O [D-Glp Leu Pro, D-Pyroglutamyl-L-leucyl-L-prolinamide] ([d(pGlu)]-Leu-Pro-NH2) | 70 | 58 | 115 | 25.8 | 97 | 54 | 54 | 25.6 | 27.4 | 36.5 | 0
5 | CC(C)C[C@H](NC(=O)C1CCCC(=O)N1)C(=O)N1CCC[C@H]1C(N)=O (stereo partly drawn) [Kpc Leu Pro, L-6-ketopiperidine-2-carbonyl-L-leucyl-L-prolinamide] | 23.5 | 80 | 127 | 32.0 | 37 | 79 | 319 | 33.9 | 24.5 | 36.3 | 2.7
6 | CCC[C@H](NC(=O)C1CCCC(=O)N1)C(=O)N1CCC[C@H]1C(N)=O (stereo partly drawn) [Kpc Nva Pro, L-6-Ketopiperidine-2-carbonyl-L-norvalyl-L-prolinamide] | 10.6 | 45 | 65 | 33.1 | 51 | 46 | 36 | 32.5 | 23.9 | 36.3 | 0
